This note sets out measurements from patent publication US9540345B2, “Antiviral compounds” (priority 2013, dated 2017).

In assay [1] the test system is pseudotyped HCV GT1b particles (HCVpp). As to the kind of experiment: microbe, parasite or virus in culture. Type of assay: cell-based, HCV GT1b Con1 strain.
Assay [2] deals with pseudotyped VSV G particles (VSVpp). As to the kind of experiment: microbe, parasite or virus in culture. Type of assay: cell-based, vesicular stomatitis virus.
[3] abbreviates: Hepatitis C virus, GT1B, 72 h, read-out: HCVpp GT-1b (EC50, μM).
[4] abbreviates: Vesicular stomatitis virus, 72 h, read-out: VSVpp (EC50, μM).

Where two headings read alike, the source gives them in different places.

Broadly, the EC50 is the concentration at which the effect is half-maximal. As to `COc1cccc(-c2c(Cl)cc(Nc3n[nH]c(N)n3)cc2Cl)n1` [Compound 44, N-3-[3,5-Dichloro-4-(6-methoxy-pyridin-2-yl)-phenyl]-1H-[1,2,4]triazole-3,5-diamine], the results for the EC50 in assay [1] (setting [3]) and in assay [2] (setting [4]) were 1.16 µM and 7.8 µM, respectively.
Regarding “N*3*-{3-Chloro-4-[6-(propane-2-sulfonyl)-pyridin-3-yl]-5-trifluoromethyl-phenyl}-1H-[1,2,4]triazole-3,5-diamine [Compound 23]”, the values for the EC50 in assay [1] (read-out: HCVpp GT-1b (EC50)) and in assay [2] (read-out: VSVpp (EC50)) were 0.179 µM and 7.5 µM, respectively.
As to “N*3*-(3,5-Dichloro-4-[1,2,4]triazolo[4,3-a]pyridin-3-yl-phenyl)-1H-[1,2,4]triazole-3,5-diamine [Compound 22]”, the EC50 in assay [1] (read-out: HCVpp GT-1b (EC50)) is 2.04 µM.
Consider `Nc1nc(Nc2cc(Cl)c(-c3ccncc3)c(Cl)c2)n[nH]1` [Compound 35, N-3-(3,5-Dichloro-4-(pyridin-4-yl)phenyl)-1H-1,2,4-triazole-3,5-diamine], for which the EC50 in assay [1] (setting [3]) was 0.338 µM; in assay [2] (setting [4]), 2.5 µM.
For `Nc1nc(Nc2cc(Cl)c(-c3cncnc3)c(Cl)c2)n[nH]1` [Compound 39, N-3-(3,5-Dichloro-4-pyrimidin-5-yl-phenyl)-1H-[1,2,4]triazole-3,5-diamine], the EC50 in assay [1] (setting [3]) came to 0.536 µM; in assay [2] (setting [4]), 5.1 µM.
`Nc1nc(Nc2cc(Cl)c(-c3cccnc3)c(Cl)c2)n[nH]1` [Compound 37, N-3-(3,5-Dichloro-4-pyridin-3-yl-phenyl)-1H-[1,2,4]triazole-3,5-diamine]: the EC50 worked out at 0.413 µM in assay [1] (setting [3]) and 8.1 µM in assay [2] (setting [4]).
On to `CS(=O)(=O)c1ccc(-c2c(Cl)cc(Nc3nc(N)n[nH]3)cc2Cl)cn1` [Compound 11, N^5-(3,5-Dichloro-4-(6-methanesulfonyl-pyridin-3-yl)-phenyl)-1H-[1,2,4]-triazole-3,5-diamine], for which the EC50 in assay [1] (setting [3]) was found to be 0.271 µM; in assay [2] (setting [4]) it was 2.2 µM.
For the compound `Nc1n[nH]c(Nc2cc(F)c(-c3ccc(F)nc3)c(C(F)(F)F)c2)n1` [Compound 9, N^5-(3-Fluoro-4-(6-fluoropyridin-3-yl)-5-trifluoromethylphenyl)-1H-[1,2,4]-triazole-3,5-diamine], the EC50 in assay [1] (setting [3]) was determined as 0.998 µM; in assay [2] (setting [4]) it was 31.1 µM.
Consider `Nc1nc(Nc2cc(Cl)c(-c3cc[nH]n3)c(Cl)c2)n[nH]1` [Compound 38, N-3-[3,5-Dichloro-4-(1H-pyrazol-3-yl)-phenyl]-1H-[1,2,4]triazole-3,5-diamine], for which the EC50 in assay [1] (setting [3]) came out at 3.39 µM; in assay [2] (setting [4]), 35.8 µM.
On the same counts, the results for `Nc1nc(Nc2cc(Cl)c(-c3ccc(=O)[nH]c3)c(Cl)c2)n[nH]1` [Compound 3, 5-[4-(5-Amino-1H-[1,2,4]triazol-3-ylamino)-2,6-dichloro-phenyl]-1H-pyridin-2-one] are 0.364 µM and not below 10 µM.
In the case of “N3-(3,5-dichloro-4-(1,2,3,6-tetrahydropyridin-4-yl)phenyl)-1H-1,2,4-triazole-3,5-diamine [Compound 19]”, the EC50 in assay [1] (read-out: HCVpp GT-1b (EC50)) worked out at 0.505 µM.
As to `CS(=O)(=O)Nc1ccc(-c2c(Cl)cc(Nc3n[nH]c(N)n3)cc2Cl)cn1` [Compound 8, N-{5-[4-(5-Amino-1H-[1,2,4]triazol-3-ylamino)-2,6-dichloro-phenyl]-pyridin-2-yl}-methanesulfonamide], the results for the EC50 in assay [1] (setting [3]) and in assay [2] (setting [4]) were 0.386 µM and not below 10 µM, respectively.
For `Nc1nc(Nc2cc(Cl)c(-c3ccc(Cl)s3)c(Cl)c2)n[nH]1` [Compound 36, N-3-[3,5-Dichloro-4-(5-chloro-thiophen-2-yl)-phenyl]-1H-[1,2,4]triazole-3,5-diamine], in that order: 0.558 µM and 11.9 µM.
Turning to `COc1ncc(-c2c(Cl)cc(Nc3n[nH]c(N)n3)cc2Cl)cn1` [Compound 40, N-3-[3,5-Dichloro-4-(2-methoxy-pyrimidin-5-yl)-phenyl]-1H-[1,2,4]triazole-3,5-diamine], the EC50 in assay [1] (setting [3]) came to 0.52 µM; in assay [2] (setting [4]) it was 3.3 µM.
For `CC(=O)c1sccc1-c1c(Cl)cc(Nc2n[nH]c(N)n2)cc1Cl` [Compound 34, 1-{3-[4-(5-Amino-1H-[1,2,4]triazol-3-ylamino)-2,6-dichloro-phenyl]-thiophen-2-yl}-ethanone], in that order: 0.144 µM and 1.8 µM.
Consider `CNC(=O)c1ccc(-c2c(Cl)cc(Nc3n[nH]c(N)n3)cc2C(F)(F)F)cn1` [Compound 32, 5-(4-(5-amino-1H-1,2,4-triazol-3-ylamino)-2-chloro-6-(trifluoromethyl)phenyl)-N-methylpicolinamide], for which the EC50 in assay [1] (setting [3]) came out at 0.169 µM; in assay [2] (setting [4]) it was 21.8 µM.
In the case of “tert-Butyl 4-(4-(5-amino-1H-1,2,4-triazol-3-ylamino)-2-chloro-6-(trifluoromethyl)phenyl)-5,6-dihydropyridine-1(2H)-carboxylate [Compound 20]”, the EC50 in assay [1] (read-out: HCVpp GT-1b (EC50)) amounted to 0.073 µM; in assay [2] (read-out: VSVpp (EC50)), 13.6 µM.
Take “N3-[3-Chloro-4-(1,2,3,6-tetrahydro-pyridin-4-yl)-5-trifluoromethyl-phenyl]-1H-[1,2,4]triazole-3,5-diamine hydrochloride [Compound 21]”: in assay [1] (read-out: HCVpp GT-1b (EC50)), the EC50 stood at 0.568 µM.
Turning to `CS(=O)(=O)c1cncc(-c2c(Cl)cc(Nc3n[nH]c(N)n3)cc2Cl)c1` [Compound 2, N*3*-[3,5-Dichloro-4-(5-methanesulfonyl-pyridin-3-yl)-phenyl]-1H-[1,2,4]triazole-3,5-diamine], the concentration for a half-maximal effect (EC50) was 0.386 µM in assay [1] (setting [3]) and not below 10 µM in assay [2] (setting [4]).
For `Nc1nc(Nc2cc(Cl)c(-c3ccnnc3)c(Cl)c2)n[nH]1` [Compound 33, N3-(3,5-dichloro-4-(pyridazin-4-yl)phenyl)-1H-1,2,4-triazole-3,5-diamine], in that order: 0.78 µM and 10.6 µM.
On to `Nc1n[nH]c(Nc2cc(F)c(-c3cccnc3)c(C(F)(F)F)c2)n1` [Compound 10, N^5-(3-Fluoro-4-(pyridin-3-yl)-5-trifluoromethylphenyl)-1H-[1,2,4]-triazole-3,5-diamine], for which the results for the EC50 in assay [1] (setting [3]) and in assay [2] (setting [4]) were 1.24 µM and 34.2 µM, respectively.
Regarding “N3-(2-chloro-4′-(4-methylpiperazin-1-yl)-6-(trifluoromethyl)biphenyl-4-yl)-1H-1,2,4-triazole-3,5-diamine [Compound 27]”, the EC50 in assay [1] (read-out: HCVpp GT-1b (EC50)) was determined as 0.301 µM.
On to `NCC1(CO)CN(c2c(Cl)cc(Nc3nc(N)n[nH]3)cc2Cl)C1` [Compound 13, {3-Aminomethyl-1-[4-(5-amino-2H-[1,2,4]triazol-3-ylamino)-2,6-dichlorophenyl]-azetidin-3-yl}-methanol], for which the EC50 in assay [1] (setting [3]) is 10 µM; in assay [2] (setting [4]), not below 10 µM.
`Nc1nc(Nc2cc(Cl)c(-n3cccn3)c(Cl)c2)n[nH]1` [Compound 17, N3-(3,5-dichloro-4-(1H-pyrazol-1-yl)phenyl)-1H-1,2,4-triazole-3,5-diamine]: the EC50 in assay [1] (setting [3]) was determined as 4.14 µM; in assay [2] (setting [4]), 34.6 µM.
On to `Nc1nc(Nc2cc(Cl)c(-c3ccc(C(F)(F)F)nc3)c(Cl)c2)n[nH]1` [Compound 41, N-3-[3,5-Dichloro-4-(6-trifluoromethyl-pyridin-3-yl)-phenyl]-1H-[1,2,4]triazole-3,5-diamine], for which the EC50 in assay [1] (setting [3]) was 0.703 µM; in assay [2] (setting [4]), 32.6 µM.
Turning to “N3-(3-chloro-4-(1-methyl-1H-1,2,4-triazol-5-yl)phenyl)-1H-1,2,4-triazole-3,5 diamine [Compound 16]”, the EC50 in assay [1] (read-out: HCVpp GT-1b (EC50)) was found to be 34.8 µM.
Consider “N3-(3-Chloro-4-(1-methyl-1H-tetrazol-5-yl)phenyl)-1H-1,2,4-triazole-3,5-diamine [Compound 15]”, for which, in assay [1] (read-out: HCVpp GT-1b (EC50)), the EC50 was found to be 6.72 µM.
